Assay results from article PMC11653243, “Enhancing Phototoxicity in BODIPY‐Perylene Charge Transfer Dyads by Combined Iodination and Mesylation” (Chemistry (Weinheim an Der Bergstrasse, Germany), 2024).
Where two headings read alike, the source gives them in different places.

Tests used:
[1] = parameters: method as in PMID 36802283; settings: cited from earlier work
MCF‐7 cells [2] = test system: MCF‐7 cells; parameters: method as in PMID 36807947; settings: 470 nm LED, 17±1.64 J/cm^2, published previously, read-out: Light IC50 (converted); cited from earlier work
HeLa cells = test system: HeLa cells; parameters: method as in PMID 31743947; settings: 9.6 J/cm^2, 500 nm irradiation; cited from earlier work
CHO cells [3] = assay: Hypoxic phototoxicity (CoCl2 induced hypoxia); format: cell-based, Chinese Hamster; settings: Cricetulus griseus, 300 μM CoCl2 4 h, 470 nm LED, maximum 1 μM tested, read-out: hypoxic IC50 (light)
Method: (§1) Cobalt chloride (CoCl2), a popular chemical hypoxia inducer, was added to the cells (after incubation with B2PI or MB2PI) at a total concentration of 300 μM CoCl2 in media and incubated for 4 h to mimic hypoxic conditions. In comparison to low‐oxygen induced hypoxia, this method stabilises hypoxia inducible factor 1 alpha subunit (HIF‐1α) for some hours after treatment, allowing a greater window for the phototoxicity studies.[52] We have previously confirmed the chemical induction of hypoxia with CoCl2 using an enzyme linked immunosorbent assay to detect HIF‐1α in cell lysates.[53] The cells were irradiated immediately upon removal of the media/CoCl2 solution as per the normoxic phototoxicity protocol.
(§2) Dark‐ and photo‐toxicity studies were performed by seeding CHO and MCF‐7 cells in clear 96‐well plates (Nunc) and treating with varying concentrations of B2P, MB2P, B2PI and MB2PI. Phototoxicity experiments were carried out using a 470 nm LED. For hypoxic phototoxicity studies, hypoxia was mimicked by adding CoCl2 to the cells prior to irradiation. Cell viability was determined using the alamar blue assay and absorbance measured with a BMG LABTECH CLARIOstar plate reader.
(§3) Hypoxic Phototoxicity Studies
(§4) Hypoxic phototoxicity studies were performed as per routing phototoxicity protocol. Hypoxia […]
(§5) A 1 M stock of CoCl2 in sterile 1X PBS […]

MCF‐7 cells [4] = assay: Hypoxic phototoxicity (CoCl2 induced hypoxia); format: cell-based; settings: Homo sapiens, MCF7, 300 μM CoCl2 4 h, 470 nm LED, maximum 1 μM tested, read-out: hypoxic IC50 (light)
Method: as §1, §2, §3, §4, §5

CHO cells [5] = assay: ROS imaging with H2DCFDA in live cells; format: cell-based, Chinese Hamster; settings: 30 μM, 17 h; 488 nm (0.38 mW/cm^2) for 5 minutes
Method: To study the production of ROS in a live cell environment a commercial ROS dye, H2DCFDA was used. CHO and MCF‐7 cells were incubated with MB2PI (30 μM, 17 h), washed with PBS and co‐stained with H2DCFDA (5 μM, 30 min). To ensure no photoactivation of MB2PI, emission from H2DCFDA was collected alone prior to the excitation of the BODIPY. The complex was then irradiated continuously at 488 nm (0.38 mW/cm^2) for 5 minutes. […] Weak emission of H2DCFDA was observed prior to irradiation, consistent with the low cytotoxicity of the complex. However, after irradiation, the fluorescence intensity of the ROS dye increases dramatically indicating ROS production, consistent with the high phototoxicity of MB2PI in both test cell lines. The higher phototoxicity of MB2PI in MCF‐7 cells restricted the ROS imaging study to CHO cells as the MCF‐7 cells began to die rapidly upon irradiation. Controls completed by adding H2DCFDA in test cells without MB2PI confirmed no ROS production with or without irradiation at 488 nm.
Figure S32. DPBF (10 mM) 1O2 scavenger assay with B2P, MB2P, B2PI or MB2PI in methanol from 0-210 seconds irradiation, where absorbance at 410 nm was recorded every 30 seconds.
CHO and MCF-7 cells were treated with MB2PI (30 µM, 17 h) for the ROS imaging studies. […]
A 63x oil immersion objective was used to acquire images. The irradiance was determined using a power meter from Edmund Optics. […]

CC1=C(I)C(C)=[N+]2C1=C(c1ccccc1)c1c(C)c(-c3ccc4c5cccc6cccc(c7cccc3c74)c65)c(C)n1[B-]2(F)F [B2PI]
Mol. Bright ([1]; Dioxane): 2028 | Stokes Shift ([1]; Dioxane): 3232 cm⁻¹ | knr ([1]; Dioxane): 68 10^7 s^−1 | kr ([1]; Dioxane): 1.8 10^7 s^−1 | Φf ([1]; Dioxane): 0.03 | λabs ([1]; Dioxane): 531 nm | λem ([1]; Dioxane): 641 nm | τave ([1]; Dioxane): 1.4±0.01 ns | ϵ ([1]; Dioxane): 67600 M⁻¹ cm⁻¹ | Amp of τ1 ([1]; Toluene): 7.2% | Amp of τ2 ([1]; Toluene): 92.8% | Mol. Bright ([1]; Toluene): 1899 | Stokes Shift ([1]; Toluene): 3003 cm⁻¹ | knr ([1]; Toluene): 32 10^7 s^−1 | kr ([1]; Toluene): 8.5 10^7 s^−1 | Φf ([1]; Toluene): 0.03 | λabs ([1]; Toluene): 534 nm | λem ([1]; Toluene): 636 nm | τ1 ([1]; Toluene): 2.9±0.1 ns | τ2 ([1]; Toluene): 0.7±0.01 ns | τave ([1]; Toluene): 1.2±0.0 ns | ϵ ([1]; Toluene): 63300 M⁻¹ cm⁻¹ | IC50 (MCF‐7 cells [2]): 235 nM

CC1=CC(C)=[N+]2C1=C(c1ccccc1)c1c(C)c(-c3ccc4c5cccc6cccc(c7cccc3c74)c65)c(C)n1[B-]2(F)F [B2P]
Amp of τ1 ([1]; Dioxane): 5.3% | Amp of τ2 ([1]; Dioxane): 94.7% | Mol. Bright ([1]; Dioxane): 6588 | Stokes Shift ([1]; Dioxane): 3417 cm⁻¹ | knr ([1]; Dioxane): 44 10^7 s^−1 | kr ([1]; Dioxane): 4.6 10^7 s^−1 | Φf ([1]; Dioxane): 0.09 | λabs ([1]; Dioxane): 515 nm | λem ([1]; Dioxane): 625 nm | τ1 ([1]; Dioxane): 4.1±0.2 ns | τ2 ([1]; Dioxane): 1.8±0.0 ns | τave ([1]; Dioxane): 2.0±0.0 ns | ϵ ([1]; Dioxane): 73200 M⁻¹ cm⁻¹ | Mol. Bright ([1]; Toluene): 16884 | Stokes Shift ([1]; Toluene): 3071 cm⁻¹ | knr ([1]; Toluene): 79 10^7 s^−1 | kr ([1]; Toluene): 2.6 10^7 s^−1 | Φf ([1]; Toluene): 0.21 | λabs ([1]; Toluene): 518 nm | λem ([1]; Toluene): 616 nm | τ1 ([1]; Toluene): 2.5±0.0 ns | τave ([1]; Toluene): 2.5±0.01 ns | ϵ ([1]; Toluene): 80400 M⁻¹ cm⁻¹ | phototoxic index (PI) (HeLa cells): 1041

CC1=C(c2ccc3c4cccc5cccc(c6cccc2c63)c54)C(C)=[N+]2C1=C(c1c(C)cc(C)cc1C)c1c(C)c(I)c(C)n1[B-]2(F)F [MB2PI]
IC50 (CHO cells [3]): > 1000 nM | IC50 (MCF‐7 cells [4]): > 1000 nM | ROS production (H2DCFDA fluorescence) after irradiation (CHO cells [5]): increased production of ROS
